Results: publication PMC10006169, “A phase I trial of LXS196, a protein kinase C (PKC) inhibitor, for metastatic uveal melanoma” (British Journal of Cancer, 2023)

System: RasGRP3, DUSP6
Assay: RNAseq gene expression in tumour biopsies
Assay type: in vivo, human
Protocol: Detailed DNA and RNA extraction methods and analysis are described in the supplementary appendix.
RNA libraries were prepared for RNAseq as previously described. Briefly, the total RNA was depleted of ribosomal RNA (rRNA), fragmented, converted to cDNA, and then the next generation sequencing (NGS) library was constructed using the TruSeq RNA v2 Library Preparation Kit (Illumina) with end repair, A-tailing, indexed adaptor ligation and PCR amplification steps. Sequence reads were aligned with STAR [12] to the hg19 human reference genome, and read counts of coding regions were summarised by HTSeq using a reference transcriptome of human Refseq transcripts.

Structure (SMILES): CC1(N)CCN(c2cccnc2NC(=O)c2nc(-c3ncccc3C(F)(F)F)cnc2N)CC1 [LXS196]
- MAPK pathway activity as measured by DUSP6 expression: trend towards suppression in the PR group
- RasGRP3 expression on treatment (C1D15, QD and BID): decreased in some patients
